# Source: PMC12514245, “Impaired migration and lung invasion of human melanoma by a novel small molecule targeting the transmembrane domain of death receptor p75^NTR” (EMBO Molecular Medicine, 2025)
# Where “and” joins values, the source holds several entries; their conditions need not be identical. Equal entries are not always repeated.
# Tests used:
# A875 NT cells [1] = test: Wound healing cell motility assay, A875 NT; format: cell-based, human; settings: for Wound area (Fold): A875 NT
# Procedure: For wound healing assay, cells were grown until confluency and subjected to a wound across the cell mono-layer. Cells were then incubated with serum-free media either with DMSO or a small molecule (with or without 5 µM Q_VD_poH) and imaged at specific time-points. Cell migration is reflected as fold change in wound area over time.
# A875 NT cells [2] = test: Boyden chamber chemotaxis/invasion assay, A875 NT; format: cell-based, human; settings: for Fold change - invading cells, Mean / Fold change - invading cells, individual replicates: 1μM; for Fold change (invading cells), Mean: N=3
# Procedure: For Boyden chamber assay, Corning® BioCoat™ Matrigel® Invasion Chambers 8.0 µm PET Membrane were used (cat. no. 354480). A875 NT or WM115 cells were serum-starved for 16 h and then seeded at 60,000 cells per well in serum-free media under different conditions, including DMSO (vehicle) or small molecules Div17E5 or Np75-4A22 at different concentrations to the top chamber of the Matrigel-coated trans-well chamber. The pan-caspase inhibitor Q_VD_poH (at 5 µM) was also introduced in the top chamber in some experiments. Two different chemoattractants, NGF (at 50 ng/ml or 100 ng/ml as indicated) or 10% FBS were added to the bottom chamber. Assays were carried out for 8 h after which filters were fixed in 4% PFA and stained with DAPI. Cells that had remained on the top of the filter were gently scrapped away with a cotton tip. The filter lower side was imaged on an inverted fluorescence microscope and counted using ImageJ software (NIH).
# [3] = 5μM Q_VD_pOH + 10uM Div17E5, With NGF
# [4] = 5μM Q_VD_pOH + 10uM Div17E5, without NGF
smiles,measurement,setting,value
Oc1ccc(-c2cncc(Nc3ccc(Br)c(Cl)c3)n2)cc1 [Div17E5],Wound area (Fold),"A875 NT cells [1]; 1uM, 12 h, Mean",0.818 Fold
same,Wound area (Fold),"A875 NT cells [1]; 1uM, 12 h, n1",0.819 Fold
same,Wound area (Fold),"A875 NT cells [1]; 1uM, 12 h, n2",0.796 Fold
same,Wound area (Fold),"A875 NT cells [1]; 1uM, 12 h, n3",0.839 Fold
same,Wound area (Fold),"A875 NT cells [1]; 1uM, 15 h, Mean",0.788 Fold
same,Wound area (Fold),"A875 NT cells [1]; 1uM, 15 h, n1",0.792 Fold
same,Wound area (Fold),"A875 NT cells [1]; 1uM, 15 h, n2",0.758 Fold
same,Wound area (Fold),"A875 NT cells [1]; 1uM, 15 h, n3",0.814 Fold
same,Wound area (Fold),"A875 NT cells [1]; 1uM, 18 h, Mean",0.765 Fold
same,Wound area (Fold),"A875 NT cells [1]; 1uM, 18 h, n1",0.775 Fold
same,Wound area (Fold),"A875 NT cells [1]; 1uM, 18 h, n2",0.730 Fold
same,Wound area (Fold),"A875 NT cells [1]; 1uM, 18 h, n3",0.790 Fold
same,Wound area (Fold),"A875 NT cells [1]; 1uM, 21 h, Mean",0.730 Fold
same,Wound area (Fold),"A875 NT cells [1]; 1uM, 21 h, n1",0.735 Fold
same,Wound area (Fold),"A875 NT cells [1]; 1uM, 21 h, n2",0.696 Fold
same,Wound area (Fold),"A875 NT cells [1]; 1uM, 21 h, n3",0.758 Fold
same,Wound area (Fold),"A875 NT cells [1]; 1uM, 24 h, Mean",0.705 Fold
same,Wound area (Fold),"A875 NT cells [1]; 1uM, 24 h, n1",0.708 Fold
same,Wound area (Fold),"A875 NT cells [1]; 1uM, 24 h, n2",0.669 Fold
same,Wound area (Fold),"A875 NT cells [1]; 1uM, 24 h, n3",0.737 Fold
same,Wound area (Fold),"A875 NT cells [1]; 2uM, 0 h, Mean",1.000 Fold
same,Wound area (Fold),"A875 NT cells [1]; 2uM, 0 h, n1",0.9445 Fold
same,Wound area (Fold),"A875 NT cells [1]; 2uM, 0 h, n2",1.024 Fold
same,Wound area (Fold),"A875 NT cells [1]; 2uM, 0 h, n3",1.031 Fold
same,Wound area (Fold),"A875 NT cells [1]; 2uM, 3 h, Mean",0.936 Fold
same,Wound area (Fold),"A875 NT cells [1]; 2uM, 3 h, n1",0.9336 Fold
same,Wound area (Fold),"A875 NT cells [1]; 2uM, 3 h, n2",0.9313 Fold
same,Wound area (Fold),"A875 NT cells [1]; 2uM, 3 h, n3",0.9444 Fold
same,Wound area (Fold),"A875 NT cells [1]; 2uM, 6 h, Mean",0.874 Fold
same,Wound area (Fold),"A875 NT cells [1]; 2uM, 6 h, n1",0.8802 Fold
same,Wound area (Fold),"A875 NT cells [1]; 2uM, 6 h, n2",0.851 Fold
same,Wound area (Fold),"A875 NT cells [1]; 2uM, 6 h, n3",0.8894 Fold
same,Wound area (Fold),"A875 NT cells [1]; 2uM, 9 h, Mean",0.841 Fold
same,Wound area (Fold),"A875 NT cells [1]; 2uM, 9 h, n1",0.8687 Fold
same,Wound area (Fold),"A875 NT cells [1]; 2uM, 9 h, n2",0.7852 Fold
same,Wound area (Fold),"A875 NT cells [1]; 2uM, 9 h, n3",0.8693 Fold
same,Wound area (Fold),"A875 NT cells [1]; 2uM, 12 h, Mean",0.798 Fold
same,Wound area (Fold),"A875 NT cells [1]; 2uM, 12 h, n1",0.822 Fold
same,Wound area (Fold),"A875 NT cells [1]; 2uM, 12 h, n2",0.7423 Fold
same,Wound area (Fold),"A875 NT cells [1]; 2uM, 12 h, n3",0.8308 Fold
same,Wound area (Fold),"A875 NT cells [1]; 2uM, 15 h, Mean",0.764 Fold
same,Wound area (Fold),"A875 NT cells [1]; 2uM, 15 h, n1",0.7994 Fold
same,Wound area (Fold),"A875 NT cells [1]; 2uM, 15 h, n2",0.707 Fold
same,Wound area (Fold),"A875 NT cells [1]; 2uM, 15 h, n3",0.7869 Fold
same,Wound area (Fold),"A875 NT cells [1]; 2uM, 18 h, Mean",0.723 Fold
same,Wound area (Fold),"A875 NT cells [1]; 2uM, 18 h, n1",0.7549 Fold
same,Wound area (Fold),"A875 NT cells [1]; 2uM, 18 h, n2",0.6745 Fold
same,Wound area (Fold),"A875 NT cells [1]; 2uM, 18 h, n3",0.7404 Fold
same,Wound area (Fold),"A875 NT cells [1]; 2uM, 21 h, Mean",0.674 Fold
same,Wound area (Fold),"A875 NT cells [1]; 2uM, 21 h, n1",0.6977 Fold
same,Wound area (Fold),"A875 NT cells [1]; 2uM, 21 h, n2",0.6158 Fold
same,Wound area (Fold),"A875 NT cells [1]; 2uM, 21 h, n3",0.7086 Fold
same,Wound area (Fold),"A875 NT cells [1]; 2uM, 24 h, Mean",0.637 Fold
same,Wound area (Fold),"A875 NT cells [1]; 2uM, 24 h, n1",0.6671 Fold
same,Wound area (Fold),"A875 NT cells [1]; 2uM, 24 h, n2",0.5815 Fold
same,Wound area (Fold),"A875 NT cells [1]; 2uM, 24 h, n3",0.6623 Fold
same,wound healing assay,A875 NT cells [1]; low micromolar and submicromolar concentrations,totally inactive
same,NGF-induced chemotaxis,A875 NT cells [2],strongly inhibited
same,background cell migration in the absence of NGF,A875 NT cells [2],did not significantly affect background cell migration
same,"Fold change - invading cells, Mean",A875 NT cells [2]; NGF,1.91
same,"Fold change - invading cells, individual replicates",A875 NT cells [2]; NGF,1.80 and 1.91 and 2.02
same,"Fold change - invading cells, Mean",A875 NT cells [2]; no NGF,0.91
same,"Fold change - invading cells, individual replicates",A875 NT cells [2]; no NGF,0.87 and 0.90 and 0.95
same,NGF activity in Boyden chamber assay of cell chemotaxis,"A875 NT cells [2]; 1 μM, NGF 50 ng/ml",inactive
same,"Fold change (invading cells), n1-n3",A875 NT cells [2]; [3],0.46 Fold and 0.84 Fold and 0.68 Fold
same,"Fold change (invading cells), Mean",A875 NT cells [2]; [3],0.66 Fold
same,"Fold change (invading cells), n1-n3",A875 NT cells [2]; [4],0.94 Fold and 0.80 Fold
same,"Fold change (invading cells), Mean",A875 NT cells [2]; [4],0.89 Fold
same,"Fold change (invading cells), n1-n3","A875 NT cells [2]; 10μM Div17E5, With NGF",0.42 Fold and 0.37 Fold and 0.47 Fold
same,"Fold change (invading cells), Mean","A875 NT cells [2]; 10μM Div17E5, With NGF",0.42 Fold
same,"Fold change (invading cells), n1-n3","A875 NT cells [2]; 10μM Div17E5, without NGF",0.87 Fold and 0.75 Fold and 0.76 Fold
same,"Fold change (invading cells), Mean","A875 NT cells [2]; 10μM Div17E5, without NGF",0.79 Fold
